The values that follow are results of earlier work, collected in US20040266797A1, “Use of potent,selective and non toxic c-kit inhibitors for treating tumor angiogensis” (priority 2001, published 2004).

The data set has as its system tumor growth. The note with it: inhibiting mast cell degranulation.

The structures appear in SMILES notation.

As to `O=C([O-])c1cc(=O)c2c(OCC(O)COc3cccc4oc(C(=O)[O-])cc(=O)c34)cccc2o1.[Na+].[Na+]` [disodium cromoglycate], the tumor growth result is on record as “significantly depresse tumor growth”.
